Results from ChEMBL document CHEMBL1687866, “Efficient microwave-assisted synthesis of novel 3-aminohexahydrocoumarin derivatives and evaluation on their cytotoxicity” (Eur J Med Chem, 2011).
Values after ≈ are worked out from the molar mass of the structure shown.

Experiments:
[1] = Cytotoxicity against human SW1116 cells assessed as cell viability rate at 10 ug/ml after 24 hrs by MTT assay; assay type: functional, SW 1116
[2] = Cytotoxicity against human SW1116 cells assessed as cell viability rate at 0.1 ug/ml after 24 hrs by MTT assay; assay type: functional, SW 1116
[3] = Cytotoxicity against human SW1116 cells assessed as cell viability rate at 1 ug/ml after 24 hrs by MTT assay; assay type: functional, SW 1116
SGC-7901 = assay: Cytotoxicity against human SGC7901 cells after 20 hrs by MTT assay; assay type: functional, cell-based; details: SGC-7901, 20 h

SMILES	Cell viability [1]	Cell viability [2]	Cell viability [3]	IC50 (SGC-7901)
CC1(C)CC(=O)C2=C(C1)OC(=O)C(NC(=O)c1ccccc1)C2c1ccco1 (stereo not drawn)	42.02%	79.26%	67.67%	0.259 µg/mL (≈ 0.683 µM)
CC1(C)CC(=O)C2=C(C1)OC(=O)C(NC(=O)c1ccccc1)C2c1ccc(F)cc1 (mixture of isomers)	59.03%	95.76%	91.39%	0.436 µg/mL
CC1(C)CC(=O)C2=C(C1)OC(=O)C(NC(=O)c1ccccc1)C2c1ccc(Cl)cc1 (mixture of isomers)	64.34%	77.19%	77.81%	> 100 µg/mL
CC1(C)CC(=O)C2=C(C1)OC(=O)C(NC(=O)c1ccccc1)C2c1ccc([N+](=O)[O-])cc1 (mixture of isomers)	46.6%	107.38%	73.4%	0.905 µg/mL
CC1(C)CC(=O)C2=C(C1)OC(=O)C(NC(=O)c1ccccc1)C2c1ccccc1Cl (mixture of isomers)	85.08%	114.23%	97.92%	0.239 µg/mL
CC1(C)CC(=O)C2=C(C1)OC(=O)C(NC(=O)c1ccccc1)C2c1ccccc1Br (mixture of isomers)	55.74%	102.11%	99.3%	5.13 µg/mL
Cc1ccc(C2C3=C(CC(C)(C)CC3=O)OC(=O)C2NC(=O)c2ccccc2)cc1 (mixture of isomers)	82.67%	77.88%	83.63%	2.69 µg/mL
COc1cc(C2C3=C(CC(C)(C)CC3=O)OC(=O)C2NC(=O)c2ccccc2)cc(OC)c1OC (mixture of isomers)	92.18%	91.48%	81.59%	0.158 µg/mL
CC1(C)CC(=O)C2=C(C1)OC(=O)C(NC(=O)c1ccccc1)C2c1cccs1 (mixture of isomers)	50.51%	94.51%	104.31%	0.612 µg/mL
O=C1CCCC2=C1C(c1ccc(F)cc1)C(NC(=O)c1ccccc1)C(=O)O2 (mixture of isomers)	83.22%	90.86%	91.07%	0.812 µg/mL
O=C1CCCC2=C1C(c1ccc(Cl)cc1)C(NC(=O)c1ccccc1)C(=O)O2 (mixture of isomers)	69.78%	91.48%	89.77%	> 100 µg/mL
O=C1CCCC2=C1C(c1ccc([N+](=O)[O-])cc1)C(NC(=O)c1ccccc1)C(=O)O2 (mixture of isomers)	55.22%	73.6%	100.6%	1.09 µg/mL
O=C1CCCC2=C1C(c1ccccc1Cl)C(NC(=O)c1ccccc1)C(=O)O2 (mixture of isomers)	87.56%	109.5%	102.59%	0.226 µg/mL
O=C1CCCC2=C1C(c1ccccc1Br)C(NC(=O)c1ccccc1)C(=O)O2 (mixture of isomers)	99.27%	50.51%	92.19%	3.94 µg/mL
Cc1ccc(C2C3=C(CCCC3=O)OC(=O)C2NC(=O)c2ccccc2)cc1 (mixture of isomers)	107.87%	113.97%	106.66%	1.86 µg/mL
COc1cc(C2C3=C(CCCC3=O)OC(=O)C2NC(=O)c2ccccc2)cc(OC)c1OC (mixture of isomers)	94.07%	110.34%	109.73%	1.21 µg/mL
O=C1CCCC2=C1C(c1cccs1)C(NC(=O)c1ccccc1)C(=O)O2 (mixture of isomers)	69.73%	79.97%	81.65%	0.701 µg/mL
O=C1CCCC2=C1C(c1ccco1)C(NC(=O)c1ccccc1)C(=O)O2 (mixture of isomers)	74.22%	95.53%	97.92%	1.3 µg/mL
COc1cccc2c1C(=O)c1c(O)c3c(c(O)c1C2=O)C[C@@](O)(C(=O)CO)C[C@@H]3O[C@H]1C[C@H](N)[C@H](O)[C@H](C)O1.Cl [DOXORUBICIN HYDROCHLORIDE]	67.34%			
